One assay relates to Candida albicans. Nature of the assay: MIC in malt yeast agar, Candida albicans. The following applies: Ca; malt yeast agar; 30° C.; 48 hours for yeast; read-out: Minimum Inhibitory Concentration (MIC). The class given is cell-based, Candida albicans (ATCC 10231). As for the experimental part:
(§1) The minimum inhibitory concentration (MIC) for the compounds listed in Table I is determined for bacteria, using nutrient agar, and 7 yeast and fungi, using malt yeast agar. A one percent solution of the test compound is prepared in a mixture of acetone and water.
(§2) Malt yeast agar is prepared by adding 3 g yeast extract and 45 g malt agar per liter of deionized water. The specific agar is dispensed in 30 mL aliquots into 25×200 mm test tubes, capped and autoclaved for 15 minutes at 115° C.
(§3) The test tubes containing the agar are cooled in a water bath until the temperature of the agar is 48° C. Then, an appropriate amount of the one percent solution of the test compound is added (except in the controls where no compound is added) to the respective test tubes so that the final concentrations are 500, 250, 100, 50, 25, 10, 2.5, 1.0 and zero parts per million of the test compound in the agar, thus having a known concentration of test compound dispersed therein. The contents of the test tubes are then transferred to respective petri plates. After drying for 24 hours, the petri plates containing nutrient agar are inoculated with bacteria and those containing malt yeast agar are inoculated with yeast and fungi.
(§4) The inoculation with the yeast and fungi is accomplished as follows. Cultures of yeast and fungi are incubated for seven days on malt yeast agar at 30° C. These cultures are used to prepare suspensions by the following procedure. A suspension of each organism is prepared by adding 10 mL of sterile saline and 10 microliters of octylphenoxy polyethoxy ethanol to the agar slant of yeast or fungi. The sterile saline/octylphenoxy polyethoxy ethanol solution is then agitated with a sterile swab to suspend the microorganism grown on the slant. Each resulting suspension is diluted into sterile saline (1 part suspension: 9 parts sterile saline). Aliquots of these dilutions are placed in individual wells of Steer's Replicator and petri plates inoculated as previously described. The petri plates are incubated at 30° C. and read after 48 hours for yeast and 72 hours for fungi.
(§5) Table II lists the bacteria, yeast and fungi used in the MIC test described above along with their respective American Type Culture Collection (ATCC) identification numbers.
(§6) In Tables III and IV, the MIC values of the compounds described in Table I as compared to the MIC of a standard commercial preservative (with 1-(3-chloroalkyl)-3,5,7-triaza-1-azoniaadamantane chloride as the active agent and referred to in Tables III and IV as "STANDARD I") are set forth for the bacteria organisms and yeast/fungi organisms which are listed in Table II.

A further assay has as its system Staphylococcus aureus. Nature of the assay: MIC in nutrient agar, Staphylococcus aureus. In kind it is cell-based, Staphylococcus aureus (ATCC 6538). Particulars: Sa, 48 hours, read-out: Minimum Inhibitory Concentration (MIC). As for the experimental part: as §1
(§7) Nutrient agar is prepared at pH 6.8, representing a neutral medium, and at pH 8.2, representing an alkaline medium. The nutrient agars are prepared by adding 23 g of nutrient agar to one-liter of deionized water. In addition, the alkaline medium is prepared by adjusting a 0.04M solution of N-(tris-(hydroxymethyl)methyl)glycine buffered deionized water with concentrated sodium hydroxide to a pH of 8.5.
as §3
(§8) The inoculation with bacteria is accomplished by using the following procedure. Twenty-four hour-cultures of each of the bacteria are prepared by incubating the respective bacteria in tubes containing nutrient broth for 24 hours at 30° C. in a shaker. Dilutions of each of the 24 hour-cultures are made so that nine separate suspensions (one for each of the nine test bacteria) are made, each containing 10^8 colony forming units (CFU) per mL of suspension of a particular bacteria. Aliquots of 0.3 mL of each of the bacterial suspensions are used to fill the individual wells of Steer's Replicator. For each microbial suspension, 0.3 mL was used to fill three wells (i.e., three wells of 0.3 mL each) so that for the nine different bacteria, 27 wells are filled. The Steer's Replicator is then used to inoculate both the neutral and alkaline pH nutrient agar petri plates.
(§9) The inoculated petri plates are incubated at 30° C. for 48 hours and then read to determine if the test compound which is incorporated into the agar prevented growth of the respective bacteria.
as §5, §6

For the next assay, the system named is marine organisms. Nature of the assay: Marine antifouling test on coated panels. The following applies: scale 10 (completely free of marine organism growth) to 0 (completely covered). As for the experimental part:
Test panels are prepared from clear, rigid polyvinyl chloride film that is 0.381×10^-3 m thick and has one textured surface. The test panels are 0.1524 m by 0.1524 m squares that have 0.00635 m holes punched at corners on 0.127 m centers. A 0.102 square template, with a 0.067 m diameter hole at the center, is attached to the center of the textured surface of the test panels.
A candidate marine antifoulant compound (1.0 g) is stirred into a resinous latex binder (9.0 g). A portion of the compound/binder mixture (1.5 g, is added to the center of the test panel and uniformly spread over the circular area inside the template.
Water is added dropwise as needed to properly spread the compound/binder mixture. The template prevents the compound/binder mixture from spreading beyond the uncovered area. […] The template is then removed. The test panel is then allowed to dry for 8 to 12 hours at room temperature.
Two test panels are prepared for each candidate marine antifoulant compound. Two control test panels are also prepared by only treating with the resinous latex binder. One test panel of each candidate marine […] compound is attached over a white background to the topside of an exposure support apparatus. The second test panel is attached over a black background to the underside of the exposure support apparatus. The exposure support apparatus is placed horizontally 0.0254 m under a marine surface with the white background topside facing up.
After being removed from the exposure support apparatus, each test panel is inspected and rated for marine organism growth on both the treated and untreated areas of the test panel. The marine organisms present on the treated and untreated areas are noted. The presence of algae spores and bacterial slime are noted but not included in rating each test panel. The test panels are rated on a scale from 10 (representing completely free of marine organism growth) to 0 (representing completely covered with marine organism growth).
In addition, test panels were prepared using tributyl tin oxide, a known marine antifouling compound.

The subject of a further assay is Proteus vulgaris. Nature of the assay: MIC in nutrient agar, Proteus vulgaris. In kind it is cell-based, Proteus vulgaris (ATCC 881). Particulars: Pv, 48 hours, read-out: Minimum Inhibitory Concentration (MIC). The procedure:
as §1, §7, §3, §8, §9, §5, §6

A further assay relates to Penicillium chrysogenum. In words: MIC in malt yeast agar, Penicillium chrysogenum. The following applies: Pc; malt yeast agar; 30° C.; 72 hours for fungi; read-out: Minimum Inhibitory Concentration (MIC). The class given is cell-based, Penicillium chrysogenum (ATCC 9480). The procedure: as §1, §2, §3, §4, §5, §6
For assay [1], the system named is Pseudomonas aeruginosa (PRD-10). Nature of the assay: MIC in nutrient agar, Pseudomonas aeruginosa (PRD-10). The class given is cell-based, Pseudomonas aeruginosa (ATCC 15442). The following applies: PRD, 48 hours, read-out: Minimum Inhibitory Concentration (MIC). As for the experimental part:
as §1, §7, §3, §8, §9, §5, §6

In a further assay the test system is Saccharomyces cerevisiae. Nature of the assay: MIC in malt yeast agar, Saccharomyces cerevisiae. In kind it is cell-based, Saccharomyces cerevisiae (ATCC 4105). The following applies: Sc, malt yeast agar, 30° C., 48 hours for yeast, read-out: Minimum Inhibitory Concentration (MIC). The procedure: as §1, §2, §3, §4, §5, §6

In brackets after ≈: the same amount, converted by molar mass. Like-named read-outs stand apart in the source and are kept apart here. Some results are limits rather than exact numbers.

As for `N#CSc1nsnc1SC#N` [Example 2, Bis(thiocyanato)-1,2,5-thiadiazole], the MIC in the assay with Candida albicans is < 1 µg/mL; with Staphylococcus aureus (pH 6.8, 30° C.), 25 µg/mL (≈ 125 µM); in the assay on Staphylococcus aureus (pH 8.2, 30° C.), 100 µg/mL (≈ 499 µM); with Proteus vulgaris (pH 6.8, 30° C.), 25 µg/mL (≈ 125 µM); in the assay with Proteus vulgaris (pH 8.2, 30° C.), 100 µg/mL (≈ 499 µM); in the assay with Penicillium chrysogenum it was < 1 µg/mL. Moreover, the MIC worked out at 25 µg/mL (≈ 125 µM) in assay [1] (pH 6.8, 30° C.); 250 µg/mL (≈ 1250 µM) in assay [1] (pH 8.2, 30° C.); 5 µg/mL (≈ 25 µM) in the assay on Saccharomyces cerevisiae. Further, the “Marine Antifouling Rating” value in the assay on marine organisms (10 Week Test, Bottom Panel) is on record as 9; in the assay with marine organisms (10 Week Test, Top Panel), 9; with marine organisms (20 Week Test, Bottom Panel) it was 7; in the assay on marine organisms (20 Week Test, Top Panel) it was 2.

Consider `N#CSCSc1nsnc1SCSC#N` [Example 4, Bis(thiomethylthiocyanato)-1,2,5-thiadiazole], for which the MIC in the assay with Candida albicans is < 2.5 µg/mL; with Staphylococcus aureus (pH 6.8, 30° C.) it was < 10 µg/mL; in the assay with Staphylococcus aureus (pH 8.2, 30° C.), < 10 µg/mL; in the assay with Proteus vulgaris (pH 6.8, 30° C.), < 10 µg/mL; in the assay with Proteus vulgaris (pH 8.2, 30° C.), < 10 µg/mL; with Penicillium chrysogenum, < 2.5 µg/mL. Besides, the MIC was 25 µg/mL (≈ 85.5 µM) in assay [1] (pH 6.8, 30° C.); 25 µg/mL (≈ 85.5 µM) in assay [1] (pH 8.2, 30° C.); < 2.5 µg/mL in the assay on Saccharomyces cerevisiae. Also, the “Marine Antifouling Rating” value stood at 9 in the assay with marine organisms (10 Week Test, Bottom Panel); 9 in the assay with marine organisms (10 Week Test, Top Panel); 5 in the assay on marine organisms (20 Week Test, Bottom Panel); 7 with marine organisms (20 Week Test, Top Panel).

The values are drawn from patent publication US5491155A, “Substituted thiadiazoles, compositions containing them and their use as antimicrobial and marine antifouling agents” (The Dow Chemical Company, priority 1994, dated 1996).
